target: T1, TLR7 (Homo sapiens, UniProt Q9NYK1); experiment: HEK Cell Assay (TLR7/NFKb HEK reporter cells, Steady-Glo); format: cell-based; conditions: compound 30 min, then R*48 agonist 5 hours, Steady-Glo readout, read-out: Potency
T1 construct: expressed in transfected cells; host or cells: HEK cells carrying TLR7 and an NF-kB reporter read with Steady-Glo
T1 sequence (Q9NYK1 27-1049): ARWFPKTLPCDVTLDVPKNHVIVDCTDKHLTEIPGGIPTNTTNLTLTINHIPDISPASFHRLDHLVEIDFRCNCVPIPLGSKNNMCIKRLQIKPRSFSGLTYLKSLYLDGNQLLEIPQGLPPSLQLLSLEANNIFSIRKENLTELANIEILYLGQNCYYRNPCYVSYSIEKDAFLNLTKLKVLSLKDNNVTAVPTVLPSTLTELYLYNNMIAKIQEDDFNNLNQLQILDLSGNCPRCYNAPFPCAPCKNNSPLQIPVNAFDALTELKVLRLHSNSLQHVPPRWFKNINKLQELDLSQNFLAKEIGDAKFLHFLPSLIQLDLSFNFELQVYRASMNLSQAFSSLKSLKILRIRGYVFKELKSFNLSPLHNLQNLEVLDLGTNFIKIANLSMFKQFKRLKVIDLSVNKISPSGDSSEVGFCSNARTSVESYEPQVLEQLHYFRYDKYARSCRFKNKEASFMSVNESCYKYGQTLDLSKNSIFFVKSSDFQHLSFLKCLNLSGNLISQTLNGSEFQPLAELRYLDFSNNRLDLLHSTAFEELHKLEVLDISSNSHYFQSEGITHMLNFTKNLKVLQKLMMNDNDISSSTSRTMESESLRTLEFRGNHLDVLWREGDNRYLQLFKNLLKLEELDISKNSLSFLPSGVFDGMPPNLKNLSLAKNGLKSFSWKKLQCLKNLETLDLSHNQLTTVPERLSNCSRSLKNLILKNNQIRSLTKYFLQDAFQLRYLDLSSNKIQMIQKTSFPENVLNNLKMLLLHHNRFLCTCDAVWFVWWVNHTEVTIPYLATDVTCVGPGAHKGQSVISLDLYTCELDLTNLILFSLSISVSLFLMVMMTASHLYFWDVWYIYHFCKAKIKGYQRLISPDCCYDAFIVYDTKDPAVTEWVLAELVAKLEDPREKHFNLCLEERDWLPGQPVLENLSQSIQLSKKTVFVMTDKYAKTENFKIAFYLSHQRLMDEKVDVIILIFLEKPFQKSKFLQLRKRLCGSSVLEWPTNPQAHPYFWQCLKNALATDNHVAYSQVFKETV
Method in brief: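 TLR7/NF-κB HEK reporter cells cultured 24 h, then pre-incubated 30 min with compound before adding R*48 agonist. Luciferase read by Steady-Glo luminescence after 5 h.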

Structure (SMILES)	IC50 [nM]
C[C@@H]1C[C@H](c2ccc(C#N)c3ncccc23)CN(C(=O)CN2CCC3(CC2)CNC3)C1 [Compound 117, 5-[(3R,5R)-1-(2-2,7-Diaza-spiro[3.5]non-7-yl-acetyl)-5-methyl-piperidin-3-yl]-quinoline-8-carbonitrile]	1000 to 20000
C[C@@H]1C[C@H](c2ccc(C#N)c3ncccc23)CN(C(N)=O)C1 [Compound 118, (3R,5R)-3-(8-Cyano-quinolin-5-yl)-5-methyl-piperidine-1-carboxylic acid amide]	1000 to 20000
C[C@@H]1C[C@H](c2ccc(C#N)c3ncccc23)CN(C(=N)N)C1 [Compound 119, (3R,5R)-3-(8-Cyano-quinolin-5-yl)-5-methyl-piperidine-1-carboxamidine]	1000 to 20000
C[C@@H]1C[C@H](N)C[C@H](c2ccc(C#N)c3nccnc23)C1 [Compound 122, 8-((1R,3S,5S)-3-amino-5-methylcyclohexyl)quinoxaline-5-carbonitrile]	1000 to 20000
C[C@@H]1C[C@H](N)C[C@@H](c2ccc(C#N)c3nccnc23)C1 [Compound 124, 8-((1S,3S,5S)-3-amino-5-methylcyclohexyl)quinoxaline-5-carbonitrile]	> 20000
CC(C)[C@H](O)C(=O)N[C@H]1C[C@@H](C)C[C@@H](c2ccc(C#N)c3nccnc23)C1 [Compound 126, (S)—N-((1S,3R,5S)-3-(8-cyanoquinoxalin-5-yl)-5-methylcyclohexyl)-2-hydroxy-3-methylbutanamide]	1000 to 20000
CC(C)[C@H](O)C(=O)N[C@@H]1C[C@H](C)C[C@@H](c2ccc(C#N)c3nccnc23)C1 [Compound 127, (S)—N-((1R,3R,5R)-3-(8-cyanoquinoxalin-5-yl)-5-methylcyclohexyl)-2-hydroxy-3-methylbutanamide]	> 20000
CC(C)[C@H](O)C(=O)N[C@H]1C[C@@H](C)C[C@H](c2ccc(C#N)c3nccnc23)C1 [Compound 128, (S)—N-((1S,3S,5S)-3-(8-cyanoquinoxalin-5-yl)-5-methylcyclohexyl)-2-hydroxy-3-methylbutanamide]	1000 to 20000
C[C@H]1C[C@@H](N)C[C@@H](c2ccc(C(F)(F)F)c3ncccc23)C1 [Compound 135, (1R,3R,5S)-3-methyl-5-(8-(trifluoromethyl)quinolin-5-yl)cyclohexanamine]	1000 to 20000
C[C@H]1C[C@@H](N)C[C@H](c2ccc(C(F)(F)F)c3ncccc23)C1 [Compound 137, (1R,3R,5R)-3-methyl-5-(8-(trifluoromethyl)quinolin-5-yl)cyclohexanamine]	1000 to 20000
C[C@H]1C[C@@H](N)C[C@H](c2ccc(C(F)(F)F)c3nccnc23)C1 [Compound 140, (1R,3R,5R)-3-methyl-5-(8-(trifluoromethyl)quinoxalin-5-yl)cyclohexanamine]	1000 to 20000
COCCN[C@@H]1C[C@H](C)C[C@H](c2ccc(C(F)(F)F)c3nccnc23)C1 [Compound 147, (1R,3R,5S)—N-(2-methoxyethyl)-3-methyl-5-(8-(trifluoromethyl)quinoxalin-5-yl)cyclohexanamine]	> 20000
COCCN[C@H]1C[C@@H](C)C[C@@H](c2ccc(C(F)(F)F)c3nccnc23)C1 [Compound 148, (1S,3S,5R)—N-(2-methoxyethyl)-3-methyl-5-(8-(trifluoromethyl)quinoxalin-5-yl)cyclohexanamine]	1000 to 20000
COCCN[C@@H]1C[C@H](C)C[C@@H](c2ccc(C(F)(F)F)c3nccnc23)C1 [Compound 149, (1R,3R,5R)—N-(2-methoxyethyl)-3-methyl-5-(8-(trifluoromethyl)quinoxalin-5-yl)cyclohexanamine]	1000 to 20000
COCCN[C@H]1C[C@@H](C)C[C@H](c2ccc(C(F)(F)F)c3nccnc23)C1 [Compound 150, (1S,3S,5S)—N-(2-methoxyethyl)-3-methyl-5-(8-(trifluoromethyl)quinoxalin-5-yl)cyclohexanamine]	> 20000
COCCN[C@@H]1C[C@H](C)C[C@H](c2ccc(C(F)(F)F)c3ncccc23)C1 [Compound 152, (1R,3R,5S)—N-(2-methoxyethyl)-3-methyl-5-(8-(trifluoromethyl)quinolin-5-yl)cyclohexanamine]	> 20000
COCCN[C@H]1C[C@@H](C)C[C@@H](c2ccc(C(F)(F)F)c3ncccc23)C1 [Compound 153, (1S,3S,5R)—N-(2-methoxyethyl)-3-methyl-5-(8-(trifluoromethyl)quinolin-5-yl)cyclohexanamine]	1000 to 20000
C[C@@H]1C[C@H](NC(=O)[C@@H](O)C(C)(C)C)C[C@H](c2ccc(C(F)(F)F)c3nccnc23)C1 [Compound 155, (S)-2-hydroxy-3,3-dimethyl-N-((1S,3S,5R)-3-methyl-5-(8-(trifluoromethyl)quinoxalin-5-yl)cyclohexyl)butanamide]	1000 to 20000
COCCN[C@@H]1C[C@H](C)C[C@H](c2ccc(F)c3ncccc23)C1 [Compound 160, (cis-1,3,5)-3-(8-fluoroquinolin-5-yl)-N-(2-methoxyethyl)-5-methylcyclohexan-1-amine]	> 20000

Results, then the molecule that gave them:

IC50 [nM]	Structure (SMILES)
1000 to 20000	C[C@@H]1C[C@@H](c2cccc3ncccc23)CN(C(=O)NC2CCN(C)CC2)C1 [Compound 114, (3R,5S)-3-Methyl-5-quinolin-5-yl-piperidine-1-carboxylic acid (1-methyl-piperidin-4-yl)-amide]
1000 to 20000	C[C@@H]1C[C@H](c2cccc3ncccc23)CN(C(=O)NC2CCN(C)CC2)C1 [Compound 115, (3R,5R)-3-Methyl-5-quinolin-5-yl-piperidine-1-carboxylic acid (1-methyl-piperidin-4-yl)-amide]
< 1000	C[C@H]1C[C@@H](N)C[C@@H](c2ccc(C#N)c3nccnc23)C1 [Compound 121, 8-[(1S,3R,5R)-3-amino-5-methylcyclohexyl]quinoxaline-5-carbonitrile]
< 1000	C[C@H]1C[C@@H](N)C[C@H](c2ccc(C#N)c3nccnc23)C1 [Compound 123, 8-[(1R,3R,5R)-3-amino-5-methylcyclohexyl]quinoxaline-5-carbonitrile]
< 1000	CC(C)[C@H](O)C(=O)N[C@@H]1C[C@H](C)C[C@H](c2ccc(C#N)c3nccnc23)C1 [Compound 125, (S)—N-((1R,3S,5R)-3-(8-cyanoquinoxalin-5-yl)-5-methylcyclohexyl)-2-hydroxy-3-methylbutanamide]
< 1000	C[C@@H]1C[C@H](N)C[C@H](c2ccc(C(F)(F)F)c3ncccc23)C1 [Compound 136, (1S,3S,5R)-3-methyl-5-(8-(trifluoromethyl)quinolin-5-yl)cyclohexanamine]
< 1000	C[C@@H]1C[C@H](N)C[C@@H](c2ccc(C(F)(F)F)c3ncccc23)C1 [Compound 138, (1S,3S,5S)-3-methyl-5-(8-(trifluoromethyl)quinolin-5-yl)cyclohexanamine]
< 1000	C[C@H]1C[C@@H](N)C[C@@H](c2ccc(C(F)(F)F)c3nccnc23)C1 [Compound 139, (1R,3R,5S)-3-methyl-5-(8-(trifluoromethyl)quinoxalin-5-yl)cyclohexanamine]
< 1000	C[C@@H]1C[C@H](N)C[C@@H](c2ccc(C(F)(F)F)c3nccnc23)C1 [Compound 141, (1S,3S,5S)-3-methyl-5-(8-(trifluoromethyl)quinoxalin-5-yl)cyclohexanamine]
< 1000	C[C@@H]1C[C@H](N)C[C@H](c2ccc(C(F)(F)F)c3nccnc23)C1 [Compound 142, (1S,3S,5R)-3-methyl-5-(8-(trifluoromethyl)quinoxalin-5-yl)cyclohexanamine]
< 1000	C[C@H]1C[C@@H](NC(=O)[C@@H](O)C(C)(C)C)C[C@@H](c2ccc(C(F)(F)F)c3nccnc23)C1 [Compound 154, (S)-2-hydroxy-3,3-dimethyl-N-((1R,3R,5S)-3-methyl-5-(8-(trifluoromethyl)quinoxalin-5-yl)cyclohexyl)butanamide]

Source: US11512069B2, “TLR7/8 antagonists and uses thereof” (Merck Patent GmbH, priority 2016, dated 2022)
